# Biological target: PIK3CD (Human) (UniProt O00329)
# Assay: Enzyme Assay
# PIK3CD (Human), sequence (O00329 whole entry, looked up): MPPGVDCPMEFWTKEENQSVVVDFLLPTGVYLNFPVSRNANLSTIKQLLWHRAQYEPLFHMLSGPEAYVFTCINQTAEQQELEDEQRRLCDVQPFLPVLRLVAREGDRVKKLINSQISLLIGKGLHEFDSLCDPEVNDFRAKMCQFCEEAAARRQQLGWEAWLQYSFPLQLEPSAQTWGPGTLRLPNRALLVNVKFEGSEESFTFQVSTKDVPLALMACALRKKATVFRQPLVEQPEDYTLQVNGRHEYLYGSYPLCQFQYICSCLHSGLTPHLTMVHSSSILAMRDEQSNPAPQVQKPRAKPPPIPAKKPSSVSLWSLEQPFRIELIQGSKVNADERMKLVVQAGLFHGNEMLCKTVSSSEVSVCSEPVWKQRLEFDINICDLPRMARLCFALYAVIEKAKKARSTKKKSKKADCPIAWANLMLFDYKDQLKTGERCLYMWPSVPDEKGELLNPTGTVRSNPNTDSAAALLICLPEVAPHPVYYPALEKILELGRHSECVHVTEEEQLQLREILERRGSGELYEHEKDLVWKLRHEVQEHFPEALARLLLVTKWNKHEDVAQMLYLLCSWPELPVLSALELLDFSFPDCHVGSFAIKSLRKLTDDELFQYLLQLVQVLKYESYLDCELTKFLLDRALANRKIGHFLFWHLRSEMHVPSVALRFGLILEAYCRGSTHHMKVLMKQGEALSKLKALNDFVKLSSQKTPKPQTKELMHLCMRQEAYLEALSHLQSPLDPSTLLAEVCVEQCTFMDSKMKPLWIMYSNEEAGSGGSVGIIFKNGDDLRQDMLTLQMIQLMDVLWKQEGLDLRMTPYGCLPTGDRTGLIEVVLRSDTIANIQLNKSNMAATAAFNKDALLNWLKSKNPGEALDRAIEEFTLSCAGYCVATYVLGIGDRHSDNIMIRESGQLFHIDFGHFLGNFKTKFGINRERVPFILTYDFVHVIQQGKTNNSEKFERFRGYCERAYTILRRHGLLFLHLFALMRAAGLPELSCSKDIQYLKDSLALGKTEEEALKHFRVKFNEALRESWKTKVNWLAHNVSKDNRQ
row,Structure (SMILES),IC50
1,C[C@H](Nc1nc(N)nc(N)c1C#N)c1nc2cccc(Cl)c2c(=O)n1C[C@@H]1CCCNC1,0.003 µM
2,C[C@H](Nc1ncnc(N)c1C#N)c1nc2cccc(Cl)c2c(=O)n1CCN1CCN(C)CC1,0.011 µM
3,C[C@H](Nc1nc(N)nc(N)c1C#N)c1nc2cccc(Cl)c2c(=O)n1C[C@H]1CCCNC1,0.002 µM

# Biological target: PIK3CB (Human) (UniProt P42338)
# Assay: Enzyme Assay
# PIK3CB (Human), sequence (P42338 whole entry, looked up): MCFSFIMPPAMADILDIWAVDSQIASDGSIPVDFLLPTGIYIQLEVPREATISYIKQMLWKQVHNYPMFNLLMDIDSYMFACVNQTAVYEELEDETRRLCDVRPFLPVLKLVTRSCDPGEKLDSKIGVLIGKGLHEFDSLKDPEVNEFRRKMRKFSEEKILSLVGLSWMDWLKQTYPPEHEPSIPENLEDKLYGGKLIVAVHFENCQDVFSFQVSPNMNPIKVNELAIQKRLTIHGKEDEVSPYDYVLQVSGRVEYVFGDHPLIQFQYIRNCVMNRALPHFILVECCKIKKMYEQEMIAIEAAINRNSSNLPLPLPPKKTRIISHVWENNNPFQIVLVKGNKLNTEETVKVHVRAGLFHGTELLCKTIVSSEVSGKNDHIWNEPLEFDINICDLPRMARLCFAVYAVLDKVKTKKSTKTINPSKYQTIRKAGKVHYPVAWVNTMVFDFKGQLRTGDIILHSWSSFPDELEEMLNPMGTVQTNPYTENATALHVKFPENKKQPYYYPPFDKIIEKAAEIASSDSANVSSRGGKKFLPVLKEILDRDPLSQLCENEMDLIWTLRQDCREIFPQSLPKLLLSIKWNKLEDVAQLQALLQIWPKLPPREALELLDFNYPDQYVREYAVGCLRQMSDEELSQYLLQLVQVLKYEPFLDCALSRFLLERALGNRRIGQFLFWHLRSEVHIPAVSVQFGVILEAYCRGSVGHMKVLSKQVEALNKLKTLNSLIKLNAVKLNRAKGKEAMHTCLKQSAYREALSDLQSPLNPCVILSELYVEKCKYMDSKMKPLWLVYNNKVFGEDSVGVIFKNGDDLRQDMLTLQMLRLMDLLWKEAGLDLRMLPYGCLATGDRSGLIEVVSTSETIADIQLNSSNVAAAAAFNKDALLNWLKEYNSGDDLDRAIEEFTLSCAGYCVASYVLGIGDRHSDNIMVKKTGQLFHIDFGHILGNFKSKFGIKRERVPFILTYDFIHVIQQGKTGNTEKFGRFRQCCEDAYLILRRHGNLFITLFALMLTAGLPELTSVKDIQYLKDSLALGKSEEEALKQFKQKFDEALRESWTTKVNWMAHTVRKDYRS
row,Structure (SMILES),IC50
1,C[C@H](Nc1nc(N)nc(N)c1C#N)c1nc2cccc(Cl)c2c(=O)n1C[C@@H]1CCCNC1,0.079 µM
2,C[C@H](Nc1ncnc(N)c1C#N)c1nc2cccc(Cl)c2c(=O)n1CCN1CCN(C)CC1,0.34 µM
3,C[C@H](Nc1nc(N)nc(N)c1C#N)c1nc2cccc(Cl)c2c(=O)n1C[C@H]1CCCNC1,0.088 µM

# Biological target: PIK3CG (human) (UniProt P48736)
# Assay: Enzyme Assay
# PIK3CG (human), sequence (P48736 whole entry, looked up): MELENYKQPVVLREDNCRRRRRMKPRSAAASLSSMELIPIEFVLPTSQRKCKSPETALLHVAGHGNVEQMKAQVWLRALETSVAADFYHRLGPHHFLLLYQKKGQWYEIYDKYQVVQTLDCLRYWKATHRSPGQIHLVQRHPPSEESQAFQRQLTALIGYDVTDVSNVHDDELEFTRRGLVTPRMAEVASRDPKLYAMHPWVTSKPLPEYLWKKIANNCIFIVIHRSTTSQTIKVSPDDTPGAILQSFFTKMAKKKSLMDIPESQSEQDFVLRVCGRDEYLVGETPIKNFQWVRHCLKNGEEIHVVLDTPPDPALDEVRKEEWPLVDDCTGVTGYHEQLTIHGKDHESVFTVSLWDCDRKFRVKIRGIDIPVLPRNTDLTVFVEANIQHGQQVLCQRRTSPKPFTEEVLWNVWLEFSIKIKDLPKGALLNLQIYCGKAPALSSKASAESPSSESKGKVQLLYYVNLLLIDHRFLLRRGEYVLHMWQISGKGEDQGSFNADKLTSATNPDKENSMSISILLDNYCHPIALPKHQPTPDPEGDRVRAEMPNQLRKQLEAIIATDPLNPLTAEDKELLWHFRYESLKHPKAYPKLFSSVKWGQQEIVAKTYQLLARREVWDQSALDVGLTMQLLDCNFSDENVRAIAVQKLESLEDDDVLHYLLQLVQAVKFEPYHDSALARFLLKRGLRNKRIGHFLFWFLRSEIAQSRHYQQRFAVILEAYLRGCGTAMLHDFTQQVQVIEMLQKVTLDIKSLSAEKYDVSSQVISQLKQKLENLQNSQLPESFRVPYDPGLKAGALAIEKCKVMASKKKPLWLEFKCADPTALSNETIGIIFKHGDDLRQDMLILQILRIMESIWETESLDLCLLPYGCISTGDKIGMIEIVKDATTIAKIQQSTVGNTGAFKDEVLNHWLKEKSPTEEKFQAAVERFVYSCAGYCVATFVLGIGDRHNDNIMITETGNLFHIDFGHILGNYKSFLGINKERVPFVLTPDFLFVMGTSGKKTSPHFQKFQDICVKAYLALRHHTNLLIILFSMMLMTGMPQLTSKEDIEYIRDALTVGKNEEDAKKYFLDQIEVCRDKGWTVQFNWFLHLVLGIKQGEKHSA
row,Structure (SMILES),IC50
1,CC(CN)n1c([C@H](C)Nc2ncnc(N)c2C#N)nc2cccc(Cl)c2c1=O (stereo not given in full),≥ 10 µM
2,Cc1ncnc(N[C@@H](C)c2nc3cccc(Cl)c3c(=O)n2CCCN)c1C#N,≥ 10 µM
3,C[C@H](Nc1ncnc(N)c1Cl)c1nc2cccc(Cl)c2c(=O)n1CCCN,≥ 10 µM
4,Cc1cccc2nc([C@H](C)Nc3ncnc(N)c3C#N)n(CCCN)c(=O)c12,≥ 10 µM
5,N#Cc1c(N)ncnc1N[C@H](c1nc2cccc(Cl)c2c(=O)n1CCCN)C1CC1,≥ 10 µM
6,C[C@H](Nc1ncnc(N)c1C#N)c1nc2cccc(Cl)c2c(=O)n1N(C)CCN,≥ 10 µM
7,C[C@H](Nc1ncnc(N)c1C#N)c1nc2cccc(Cl)c2c(=O)n1CCCN(C)C,≥ 10 µM
8,NCCCn1c([C@@H](Nc2nc(N)nc(N)c2Cl)C2CC2)nc2cccc(Cl)c2c1=O,≥ 10 µM
9,CC(CCN)n1c([C@H](C)Nc2ncnc(N)c2C#N)nc2cccc(Cl)c2c1=O (stereo not given in full),≥ 10 µM
10,COCCCn1c([C@H](C)Nc2ncnc(N)c2C#N)nc2c(Cl)ccc(Cl)c2c1=O,> 10 µM
11,C[C@H](Nc1ncnc(N)c1C#N)c1nc2cccc(Cl)c2c(=O)n1CCCNCc1ccccc1,≥ 10 µM
12,CC[C@H](Nc1ncnc(N)c1C#N)c1nc2cccc(Cl)c2c(=O)n1CCCN,≥ 10 µM
13,C[C@H](Nc1nc(N)nc(N)c1C#N)c1nc2cccc(Cl)c2c(=O)n1C[C@@H]1CCCNC1,1.3 µM
14,CNCCCn1c([C@H](C)Nc2ncnc(N)c2C#N)nc2cccc(Cl)c2c1=O,≥ 10 µM
15,C[C@H](Nc1nc(N)nc(N)c1Cl)c1nc2cccc(Cl)c2c(=O)n1CCCN,≥ 10 µM
16,C[C@H](Nc1ncnc(N)c1C#N)c1nc2cccc(Cl)c2c(=O)n1C[C@@H](O)CO,≥ 10 µM
17,NCCCn1c([C@@H](Nc2ncnn3ccnc23)C2CC2)nc2cccc(Cl)c2c1=O,≥ 10 µM
18,C[C@H](Nc1ncnc(N)c1C#N)c1nc2cccc(Cl)c2c(=O)n1CC1CCCNC1 (stereo not given in full),≥ 10 µM
19,C[C@H](Nc1nc(N)nc(N)c1C#N)c1nc2cccc(Cl)c2c(=O)n1N(CCN)Cc1ccccc1,≥ 10 µM
20,C[C@H](Nc1ncnc(N)c1C#N)c1nc2cccc(Cl)c2c(=O)n1N(CCN)Cc1ccccc1,≥ 10 µM
21,C[C@H](Nc1nc(N)nc(N)c1C#N)c1nc2cccc(Cl)c2c(=O)n1CCN1CCCC1,≥ 10 µM
22,C[C@H](Nc1ncnc(N)c1C#N)c1nc2cccc(Cl)c2c(=O)n1CC1CCCCN1 (stereo not given in full),≥ 10 µM

row,Structure (SMILES),IC50
1,CC(CN)Cn1c([C@H](C)Nc2ncnc(N)c2C#N)nc2cccc(Cl)c2c1=O (stereo not given in full),≥ 10 µM
2,C[C@H](Nc1ncnc(N)c1C#N)c1nc2cccc(Cl)c2c(=O)n1CCCN1CCN(C)CC1,≥ 10 µM
3,N#Cc1c(N)nc(N)nc1N[C@@H](c1ccccc1)c1nc2cccc(Cl)c2c(=O)n1CCCN,≥ 10 µM
4,C[C@H](Nc1ncnc(N)c1C#N)c1nc2cccc(Cl)c2c(=O)n1CCN1CCCC1,≥ 10 µM
5,C[C@H](Nc1ncnc(N)c1C#N)c1nc2cccc(Cl)c2c(=O)n1CCN1CCN(C)CC1,≥ 10 µM
6,C[C@H](Nc1ncnc2scnc12)c1nc2cccc(Cl)c2c(=O)n1CCC(C)(C)N,≥ 10 µM
7,CC(C)C[C@H](Nc1ncnc(N)c1C#N)c1nc2cccc(Cl)c2c(=O)n1CCCN,≥ 10 µM
8,C[C@H](Nc1ncnn2ccnc12)c1nc2cccc(Cl)c2c(=O)n1CCCN,≥ 10 µM
9,C[C@H](NC(=O)c1nccnc1N)c1nc2cccc(Cl)c2c(=O)n1CCCN,≥ 10 µM
10,C[C@H](Nc1ncnc(N)c1C#N)c1nc2cccc(Cl)c2c(=O)n1CCCN1CCCCC1,≥ 10 µM
11,C[C@H](Nc1ncnc(N)c1C#N)c1nc2cccc(Cl)c2c(=O)n1CCN,≥ 10 µM
12,C[C@H](Nc1ncnc(N)c1C#N)c1nc2cccc(Cl)c2c(=O)n1[C@H]1C[C@H](N)C1,≥ 10 µM
13,C[C@H](Nc1ncnc(N)c1C#N)c1nc2cccc(Cl)c2c(=O)n1CC1CNCCO1 (stereo not given in full),≥ 10 µM
14,C[C@H](Nc1ncnc(N)c1C#N)c1nc2cccc(Cl)c2c(=O)n1CC1CCNC1 (stereo not given in full),≥ 10 µM
15,C[C@H](Nc1ncnc(N)c1C#N)c1nc2cccc(Cl)c2c(=O)n1CCC(C)(C)N,≥ 10 µM
16,C[C@H](Nc1ncnc2[nH]cnc12)c1nc2cccc(Cl)c2c(=O)n1CCCN1CCOCC1,≥ 10 µM
17,C[C@H](Nc1ncnc(N)c1C#N)c1nc2cccc(Cl)c2c(=O)n1CC1CCNCC1,≥ 10 µM
18,C[C@H](Nc1nc(N)nc(N)c1C#N)c1nc2cccc(Cl)c2c(=O)n1C[C@H]1CCCNC1,3.2 µM
19,C[C@H](Nc1ncnc(N)c1C#N)c1nc2cccc(Cl)c2c(=O)n1CCCCN,≥ 10 µM
20,C[C@H](Nc1ncnc(N)c1C#N)c1nc2cccc(Cl)c2c(=O)n1CC1CCCN1 (stereo not given in full),≥ 10 µM
21,Nc1nc(N)c(Cl)c(N[C@H](c2nc3c(Cl)ccc(Cl)c3c(=O)n2[C@H]2C[C@@H](O)C2)C2CC2)n1,≥ 10 µM
22,COCCCn1c([C@H](C)Nc2ncnc(N)c2C#N)nc2c(F)ccc(F)c2c1=O,≥ 10 µM

# From the Kinase Knowledgebase extract (Sharma et al. 2016)
